What was measured:
Translocator protein [1] = molecular target: T1, Translocator protein (Rattus norvegicus, UniProt P16257); assay: Displacement of [3H]PK11195 from rat cerebral cortex peripheral benzodiazepine receptor (type 2); type: tissue-based
Translocator protein [2] = molecular target: T1, Translocator protein; assay: Displacement of [3H]PK11195 from rat cerebral cortex peripheral benzodiazepine receptor (type 1); type: tissue-based
Translocator protein [3] = molecular target: T1, Translocator protein; assay: Displacement of [3H]PK11195 from rat kidney peripheral benzodiazepine receptor (type 2)
Translocator protein [4] = molecular target: T1, Translocator protein; assay: Displacement of [3H]Ro-5-4864 from rat cerebral cortex peripheral benzodiazepine receptor; type: tissue-based
Translocator protein [5] = molecular target: T1, Translocator protein; assay: Binding affinity against peripheral benzodiazepine receptor( PBR).
Translocator protein [6] = molecular target: T1, Translocator protein; assay: Displacement of [3H]PK11195 from rat kidney peripheral benzodiazepine receptor (type 1)
Translocator protein [7] = molecular target: T1, Translocator protein; assay: Displacement of [3H]Ro-5-4864 from rat kidney peripheral benzodiazepine receptor
[8] = molecular target: GABA-A receptor; anion channel; assay: Binding affinity against central benzodiazepine receptor(CBR).; type: protein-complex assay
Translocator protein [9] = molecular target: T1, Translocator protein; assay: Displacement of [3H]-PK11195 from rat kidney peripheral benzodiazepine receptor (type 2)

T1 sequence (P16257 whole entry, looked up): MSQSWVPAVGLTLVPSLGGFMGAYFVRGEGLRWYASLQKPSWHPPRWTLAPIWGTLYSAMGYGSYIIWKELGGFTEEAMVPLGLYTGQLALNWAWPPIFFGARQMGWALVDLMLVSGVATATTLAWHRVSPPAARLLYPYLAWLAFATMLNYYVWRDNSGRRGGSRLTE

Row | SMILES | IC50 (Translocator protein [5]) | IC50 [8] | other results
1 | COc1ccc(N(C)C(=O)/C=C2\c3nc4ccccc4cc3C(=O)N2c2ccc(Cl)cc2)cc1 | 1.9 nM | – | IC50 (Translocator protein [1]): 320 nM; IC50 (Translocator protein [2]): 9.8 nM; IC50 (Translocator protein [3]): 14 nM; IC50 (Translocator protein [4]): 2.3 nM; IC50 (Translocator protein [6]): 0.7 nM; IC50 (Translocator protein [7]): 1.7 nM
2 | CCCN(CCC)C(=O)Cc1c(-c2ccc(Cl)cc2)nc2ccc(Cl)cn12 [ALPIDEM] | 7 nM | 28 nM | –
3 | O=C1c2cccnc2CN1c1ccc(Cl)cc1 | > 1000 nM | > 1000 nM | –
4 | CCCN(CCC)C(=O)C=C1c2nc3ccccc3cc2C(=O)N1c1ccc(Cl)cc1 | > 1000 nM | – | –
5 | CN1CCN(C(=O)OC2c3nccnc3C(=O)N2c2ccc(Cl)cn2)CC1 (centres undefined) [ZOPICLONE] | – | 29 nM | –
6 | CCN(Cc1ccccc1)C(=O)/C=C1\c2nc3ccccc3cc2C(=O)N1c1ccc(Cl)cc1 | > 1000 nM | – | –
7 | CCCN(CCC)C(=O)/C=C1\c2ncccc2C(=O)N1c1ccc(Cl)cc1 | 290 nM | > 1000 nM | –
8 | CCCCCCN(CCCCCC)C(=O)/C=C1\c2nc3ccccc3cc2C(=O)N1c1ccc(Cl)cc1 | 150 nM | > 1000 nM | –
9 | CCCN(CCC)C(=O)CC1c2ncccc2C(=O)N1c1ccc(Cl)cc1 (centres undefined) | > 1000 nM | 860 nM | –
10 | CCCCCCN(CCCCCC)C(=O)/C=C1\c2ncccc2C(=O)N1c1ccc(Cl)cc1 | 33000 nM | > 1000 nM | –
11 | CCCCCCN(CCCCCC)C(=O)CC1c2nc3ccccc3cc2C(=O)N1c1ccc(Cl)cc1 (centres undefined) | > 1000 nM | > 1000 nM | –
12 | CN(Cc1ccccc1)C(=O)/C=C1\c2nc3ccccc3cc2C(=O)N1c1ccc(Cl)cc1 | > 1000 nM | – | –
13 | CCCN(CCC)C(=O)CC1c2nc3ccccc3cc2C(=O)N1c1ccc(Cl)cc1 (centres undefined) | > 1000 nM | > 1000 nM | –
14 | CCCN(CCC)C(=O)/C=C1\c2nc3ccccc3cc2C(=O)N1c1ccc(Cl)cc1 | 40 nM | > 1000 nM | IC50 (Translocator protein [1]): 210 nM; IC50 (Translocator protein [2]): 4.9 nM; IC50 (Translocator protein [3]): 160 nM; IC50 (Translocator protein [4]): 120 nM; IC50 (Translocator protein [6]): 2.7 nM; IC50 (Translocator protein [7]): 150 nM
15 | CN(C(=O)/C=C1\c2nc3ccccc3cc2C(=O)N1c1ccc(Cl)cc1)c1ccc(Cl)cc1 | 32 nM | – | IC50 (Translocator protein [1]): 610 nM; IC50 (Translocator protein [2]): 2.4 nM; IC50 (Translocator protein [4]): 4.5 nM; IC50 (Translocator protein [9]): 140 nM; IC50 (Translocator protein [6]): 1.1 nM; IC50 (Translocator protein [7]): 2 nM
16 | CCCCCCN(CCCCCC)C(=O)CC1c2ncccc2C(=O)N1c1ccc(Cl)cc1 (centres undefined) | 1600 nM | > 1000 nM | –

— ChEMBL document CHEMBL1129025, “Molecular basis of peripheral vs central benzodiazepine receptor selectivity in a new class of peripheral benzodiazepine receptor ligands related to alpidem” (J Med Chem, 1996)
